Experimental data as given in patent publication US20230225991A1, “COMPOUNDS FOR USE IN THE TREATMENT OF ACUTE INTERMITTENT PORPHYRIA” (VESTLANDETS INNOVASJONSSELSKAP AS, priority 2019, published 2023).
Marks after values point to notes of the source that are not given here.

Experiments:
[1] = molecular target: T1, WT-HMBS (Homo sapiens, UniProt P08397); experiment: HMBS activity after pre-incubation with compound at 70° C.; assay type: biochemical; settings: pre-incubation with compound at 70° C. 20 min, then standard assay 100 μM PBG at 37° C., 84 μM compound, 2% DMSO
T1 construct: Full-length HMBS was cloned into pET-28a(+)-TEV vector and transformed into BL21 (DE3) cells for expression; 6xHis (N, cleaved yes); TEV protease cleavage site (N, cleaved yes); made in house; host or cells: E. coli BL21 (DE3)
T1 sequence (P08397 1-361): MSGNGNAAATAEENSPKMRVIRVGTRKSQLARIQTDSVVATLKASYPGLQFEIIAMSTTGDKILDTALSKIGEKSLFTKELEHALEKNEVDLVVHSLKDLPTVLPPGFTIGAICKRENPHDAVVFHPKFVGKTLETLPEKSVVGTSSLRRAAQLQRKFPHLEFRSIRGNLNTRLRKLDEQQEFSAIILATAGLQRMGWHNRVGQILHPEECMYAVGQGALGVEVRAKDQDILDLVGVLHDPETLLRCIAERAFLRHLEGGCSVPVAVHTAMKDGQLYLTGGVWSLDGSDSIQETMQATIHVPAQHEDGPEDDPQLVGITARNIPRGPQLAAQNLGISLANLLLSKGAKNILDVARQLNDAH
Description: (§1) The effect of the compounds on the stability of HMBS activity was assayed by pre-incubating the HMBS (4-5 μg) in 50 mM HEPES pH 8.2, 84 μM compound and 2% DMSO for 20 min at 70° C., and then placed on ice for 5 min. The enzymatic activity at 37° C. was subsequently measured as reported previously (Bustad et al., Bioscience reports 2013; 3 3(4)). Controls without compound but with equal concentration of DMSO were included. The remaining activity in the presence of compounds was normalized relative to DMSO-control (relative activity). […] USA, www.graphpad.com.
An enzymatic assay was performed to investigate the effect of compound BG-1 on the activity and conformational stability of HMBS. HMBS activity of the purified enzyme was measured in the absence and presence of compound BG-1 (at 84 μM) at standard conditions (37° C.) but also after pre-incubation at 70° C. for 20 min based on the high thermal stability of WT-HMBS.

[2] = molecular target: T1, WT-HMBS; experiment: Limited proteolysis by trypsin; assay type: biochemical; settings: 84 μM compound; for Protection against tryptic proteolysis: 2% DMSO
Description: Limited proteolysis by trypsin was performed at 37° C. in 20 mM HEPES, 150 mM NaCl, 2% DMSO, pH 8.2, with 0.15 μg/μl HMBS in the absence (DMSO-control) or presence of 84 μM compound and 2% DMSO. The proteolysis was initiated by adding 1 μg/ml TPCK-treated trypsin (Sigma-Aldrich). After 30 min, aliquots were removed and transferred to Laemmli loading buffer containing 2 μg/ml soybean trypsin inhibitor. Samples resolved by electrophoresis with 10% Mini-Protean® TGX™ gels (Bio-Rad Laboratories, Inc.) were analyzed using the Image Lab™ software (Bio-Rad Laboratories, Inc.). The unpaired t-test (two tailed) was performed using GraphPad Prism.
(§2) Limited tryptic proteolysis was also applied to compound BG-1. Proteolysis of WT-HMBS provided three major bands with relative content 34.5±0.3%, 14.7±0.8% and 50.9±0.5%, corresponding to remaining full-length HMBS (˜42.5 kDa), and two fragments of ˜41.0 kDa and ˜31.5 kDa, respectively (FIG. 1). […] The effect of this compound at 84 μM on the steady-state enzyme kinetics of HMBS was then calculated (Table 2).

[3] = test system: Hmbs-deficient T1/T2−/− mice; experiment: Mouse trial T1/T2-B, phenobarbital-induced biochemical acute attack; assay type: in vivo; settings: 20 mg/kg/day, 12 days; for Hepatic HMBS enzyme activity in liver homogenates: compared with control group; for Urinary ALA and PBG excretion: versus control group; for Increase in steady-state levels of HMBS in liver tissue: quantitative western immunoblotting
Description: The crude liver homogenates were passed through Zeba spin desalting columns (Thermo Fisher Scientific) to remove small molecules <2000 Da. 50 mM HEPES pH 8.2 was used as equilibration buffer. 25 μl filtrated homogenate (400-500 μg total protein) was added to 110 μl sample mix (50 mM HEPES, pH 8.2, 1% Triton™ X-100) and incubated for 10 min at 37° C. before adding PBG (1 mM). The reaction was stopped after 1 h by adding ice-cooled 100% TCA to a final concentration of 25%, incubated at room temperature (RT) for 10 min and centrifuged at 10,000 g for 10 min. The absorption was measured in the supernatant at A409 with baseline correction at A380 using NanoDrop™ 2000c spectrophotometer (Thermo Fisher Scientific). The activity of HMBS was expressed as relative activity in the compound-treated […] compared to DMSO-controls. A blank sample was prepared for each homogenate. The unpaired t-test (two tailed) was performed using GraphPad Prism.
Liver homogenates (5 μg total protein/lane) were loaded onto 10% Mini-Protean® TGX™ gels (Bio-Rad) and separated with Tris/Glycine/SDS electrophoresis buffer (Bio-Rad). Trans-Blot® Turbo™ Transfer Starter System (Bio-Rad) was used to transfer the proteins onto Immun-Blot® low fluorescence PVDF membranes (Bio-Rad). The membranes were then blocked with TBS containing 1% Tween® 20 (1% TBS-T) and 3% BSA for 1 h. HMBS was probed with 1:2,000 monoclonal mouse anti-HMBS (H-11, Santa Cruz Biotechnology), together with 1:1,000 rabbit anti-actin (Sigma-Aldrich), in 1% TBS-T, 3% BSA overnight, 4° C. Alexa Fluor 647 conjugated donkey-anti-mouse and Alexa Fluor 488 conjugated donkey-anti-rabbit (both Thermo Fisher Scientific) were used as secondary antibodies and incubated in 1:1,000 dilutions in 0.1% TBS-T for 1 h. Each step was followed by extensive wash with 0.1% TBS-T. Fluorescence detection was performed using G-Box Chemi-XRQ (Syngene Synoptics, Cambridge, UK) with filters UV06 and 705 nm for AF-488 and AF-647, respectively, and the band intensities of HMBS relative to the loading control (actin) were determined using ImageJ (Schneider et al., Nature methods 2012; 9(7): 671-5).

[4] = molecular target: T1, WT-HMBS; experiment: Steady-state enzyme kinetics of HMBS (KM, Vmax); assay type: biochemical; settings: for Effect on steady-state enzyme kinetics of HMBS: 84 μM compound; for Vmax: variable PBG (0-1 mM), 37° C.
Description: as §1, §2

| Protection against tryptic proteolysis ([2]; Table 3) | Vmax ([4]; Table 3, 84 μM compound with 2% DMSO, control 61 ± 2) | Structure (SMILES) | Relative activity, pre-inc. at 70° C [1] | Protection against tryptic proteolysis ([2]; remaining full-length HMBS relative to DMSO) | Protection against proteolysis ([2]; limited tryptic proteolysis) | Hepatic HMBS enzyme activity in liver homogenates [3] | Urinary ALA and PBG excretion [3] | Relative concentration of ALA in liver ([3]; p<0.05 compared with control mice) | Relative concentration of PBG in liver ([3]; p=0.053 compared with control mice) | Increase in steady-state levels of HMBS in liver tissue [3] | Effect on steady-state enzyme kinetics of HMBS [4] | Vmax ([4]; 84 μM compound in 2% DMSO, DMSO control 61 ± 2) |
| --- | --- | --- | --- | --- | --- | --- | --- | --- | --- | --- | --- | --- |
| – | – | O=Cc1cc(Cc2ccccc2Cl)cc([N+](=O)[O-])c1O [BG-1] | 1.01 ± 0.06 | ++** (++, 10% remaining full-length HMBS relative to DMSO.) | exhibited protection against proteolysis | significantly increased enzyme activity | reduced | decreased | decreased | 2 fold | reduction in both KM and Vmax | 56 ± 1 nmol/min/mg |
| +* (+, >4%) | 54 ± 2 nmol/min/mg | O=C(c1ccccc1)c1ccc(Cl)c([N+](=O)[O-])c1 [BG-2] | – | – | – | significantly increased enzyme activity | reduced | – | – | 2 fold | weak mixed inhibitory effect | – |
